Where a chain is given by its changes, count along the chain named.

In assay [1] the target is T1, Truncated MAT II (α2 dimer + ΔS16 β) (Homo sapiens, UniProt P31153, G193S/A233V).
T1 construct: gene MAT2A; ratio 2:1; with Methionine adenosyltransferase 2 subunit beta
Nature of the assay: MAT activity assay (AdoMet synthesis). In kind it is biochemical. As to conditions: 5 mM methionine, 37 °C, no added NADP+. From the text:
MAT activity assay (AdoMet synthesis) on Truncated MAT II (α2 dimer + ΔS16 β)

The target of assay [2] is T2, MAT II (α2 dimer + wild type β hetero-trimer) (Homo sapiens, UniProt P31153, G193S/A233V, form not given).
T2 construct: gene MAT2A; hetero-trimer 2:1; with Methionine adenosyltransferase 2 subunit beta
T2 sequence (P31153 whole entry G193S/A233V, form open): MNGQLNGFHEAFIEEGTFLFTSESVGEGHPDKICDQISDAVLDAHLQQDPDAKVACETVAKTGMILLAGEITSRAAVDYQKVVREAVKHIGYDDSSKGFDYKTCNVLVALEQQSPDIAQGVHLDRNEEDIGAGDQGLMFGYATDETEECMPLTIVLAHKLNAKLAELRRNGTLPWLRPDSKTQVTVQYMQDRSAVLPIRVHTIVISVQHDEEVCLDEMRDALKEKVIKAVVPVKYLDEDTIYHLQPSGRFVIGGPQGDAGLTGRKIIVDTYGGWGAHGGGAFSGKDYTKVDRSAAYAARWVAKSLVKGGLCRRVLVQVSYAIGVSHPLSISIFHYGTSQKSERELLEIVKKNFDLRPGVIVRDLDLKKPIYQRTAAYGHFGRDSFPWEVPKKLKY
T2 sequence (Q9NZL9 whole entry Y159F/K163A partner, form open): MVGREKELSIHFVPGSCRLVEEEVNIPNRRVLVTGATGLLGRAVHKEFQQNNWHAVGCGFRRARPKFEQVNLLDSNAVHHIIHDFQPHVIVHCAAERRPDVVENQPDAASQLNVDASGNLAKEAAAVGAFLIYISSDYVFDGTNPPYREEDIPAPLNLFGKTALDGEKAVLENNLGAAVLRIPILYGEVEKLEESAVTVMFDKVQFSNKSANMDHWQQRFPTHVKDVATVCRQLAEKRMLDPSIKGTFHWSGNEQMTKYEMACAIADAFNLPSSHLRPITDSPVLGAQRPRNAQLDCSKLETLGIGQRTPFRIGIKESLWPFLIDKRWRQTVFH
Kind of assay: MAT activity assay (AdoMet synthesis). The format is biochemical. As to conditions: 5 mM methionine, 37 °C, no added NADP+. The text has this:
MAT activity assay (AdoMet synthesis) on MAT II (α2 dimer + wild type β hetero-trimer)

The target of assay [3] is T3, refolded-α2 (MAT α2 homo-dimer) (Homo sapiens, UniProt P31153, G193S/A233V).
T3 construct: gene MAT2A; 43447 Da; dimer (tetramer at higher concentration); all cloned ORFs carry A233V and G193S
T3 sequence (P31153 whole entry G193S/A233V): as the sequence (P31153 whole entry G193S/A233V, form open) above
Kind of assay: MAT activity assay (AdoMet synthesis). As to conditions: 5 mM methionine, 37 °C, no added NADP+. In kind it is biochemical. The text has this:
MAT activity assay (AdoMet synthesis) on refolded-α2 (MAT α2 homo-dimer)

Assay [4] concerns the target T4, MAT β subunit (regulatory β subunit, V1 form) (Homo sapiens, UniProt Q9NZL9).
T4 construct: gene MAT2B; full length V1 from GST fusion in E. coli, TEV-cut, GSH linker retained at N-terminus; monomer/dimer equilibrium
T4 sequence (Q9NZL9 1-334): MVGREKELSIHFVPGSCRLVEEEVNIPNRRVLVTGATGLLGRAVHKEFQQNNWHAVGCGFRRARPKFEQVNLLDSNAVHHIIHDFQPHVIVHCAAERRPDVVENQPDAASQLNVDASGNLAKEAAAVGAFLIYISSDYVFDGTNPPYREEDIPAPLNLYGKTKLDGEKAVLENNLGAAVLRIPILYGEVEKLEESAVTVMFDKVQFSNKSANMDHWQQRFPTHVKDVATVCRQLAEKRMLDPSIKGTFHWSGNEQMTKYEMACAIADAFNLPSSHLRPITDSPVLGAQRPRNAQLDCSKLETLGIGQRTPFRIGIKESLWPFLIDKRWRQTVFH
Kind of assay: isothermal titration calorimetry. In kind it is binding. As to conditions: read-out: NADP^+→β. The text has this: isothermal titration calorimetry on MAT β subunit (regulatory β subunit, V1 form)

The target in assay [5] is T5, MAT β subunit (regulatory β subunit, V1 form) (Homo sapiens, UniProt Q9NZL9, K163A/Y159F).
T5 construct: gene MAT2B; full length V1 from GST fusion in E. coli, TEV-cut, GSH linker retained at N-terminus; monomer/dimer equilibrium
T5 sequence (Q9NZL9 1-334 Y159F/K163A): T4 sequence (Q9NZL9 1-334) with Y159F, K163A
Kind of assay: isothermal titration calorimetry. In kind it is binding. Background: ITC needs no label: the signal is the heat of the interaction.

T1 sequence (P31153 whole entry G193S/A233V, stated change not applied, one chain of several, the tested form may be a part): as the sequence (P31153 whole entry G193S/A233V, form open) above

`Nc1ncnc2c1ncn2[C@@H]1O[C@H](COP(=O)(O)OP(=O)(O)OP(=O)(O)O)[C@@H](O)[C@H]1O` [ATP]: the Km (commonly the concentration of substrate that gives half-maximal velocity) in assay [1] amounted to 151 ± 81.4 µM; in assay [2], 125 ± 32.2 µM; in assay [3] it was 254 ± 66.2 µM.

Regarding `NC(=O)c1ccc[n+]([C@@H]2O[C@H](COP(=O)(O)OP(=O)(O)OC[C@H]3O[C@@H](n4cnc5c(N)ncnc54)[C@H](OP(=O)(O)O)[C@@H]3O)[C@@H](O)[C@H]2O)c1` [NADP^+], the Kd in assay [4] is 1700 nM; in assay [5], > 150000 nM.

The values are drawn from PMC3506619, “NADP^+ Binding to the Regulatory Subunit of Methionine Adenosyltransferase II Increases Intersubunit Binding Affinity in the Hetero-Trimer” (PLoS ONE, 2012).
